Source: patent US11976069B2, “Inhibitors of histone deacetylase useful for the treatment or prevention of HIV infection” (Merck Sharp & Dohme LLC, priority 2019, dated 2024)
Like-named read-outs stand apart in the source and are kept apart here.

Target: T1, HDAC8 (Homo sapiens, UniProt Q9BY41)
T1 construct: purchased Enzo Life Sciences (Farmingdale, N.Y.) BMIL-SE145-0100
T1 sequence (Q9BY41 1-377): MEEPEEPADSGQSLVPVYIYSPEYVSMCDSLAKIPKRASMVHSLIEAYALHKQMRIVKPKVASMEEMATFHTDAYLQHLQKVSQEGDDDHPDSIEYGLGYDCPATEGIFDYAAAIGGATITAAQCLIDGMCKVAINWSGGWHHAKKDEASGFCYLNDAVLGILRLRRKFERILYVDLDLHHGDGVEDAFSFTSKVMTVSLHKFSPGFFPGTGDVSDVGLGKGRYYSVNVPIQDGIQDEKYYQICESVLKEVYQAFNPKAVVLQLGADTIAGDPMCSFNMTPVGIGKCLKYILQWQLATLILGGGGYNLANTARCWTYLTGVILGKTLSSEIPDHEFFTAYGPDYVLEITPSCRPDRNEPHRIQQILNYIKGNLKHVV
Experiment: HDAC8 inhibition, modified Fluor-de-Lys assay
Assay type: biochemical
Settings: 3 h pre-incubation, 200 μM substrate BML-KI178, read-out: HDAC-8 IC50
Text: Human HDAC Enzyme Inhibitor FLUOR-DE-LYS Assay Materials
Recombinant human HDAC8 (catalog number BMIL-SE145-0100) and HDAC10 (catalog number BML-SE559-0050) enzymes, HIDAC substrates BML-KI104 and BML-K1178, and HLDAC developer solutions BMIL-KI105 and BML-K1176 were purchased from Enzo Life Sciences (Farmingdale, N.Y.). Recombinant human HDAC5 and HDAC11 were purchased from BPS Bioscience (San Diego, Calif.)(catalog numbers 50045 and 50021). Substrate Boc-Lys(TFA)-AMC was obtained from Bachem (Bupendorf, Switzerland) (catalog number 1-1985). HDAC inhibitor suberoylanilide hydroxamic acid (SAHA) was obtained from Indofine (Hillsborough Township, N.J.) and trichostatin A (TSA) was obtained from Sigma-Aldrich (St. Louis, Mo.). […] HEPES pH 8.0 was obtained from Boston BioProducts (Ashland, Mass.), Tween-20 from Fisher Scientific (Hampton, N.H.) (catalog number BP337), TCEP from Calbiochem and 7.5% bovine serum albumin (BSA) from Life Technologies (Carlsbad, Calif.) (catalog number 15260037). 384-well, black assay plates were obtained from Corning (Corning, N.Y.) (catalog number 3575).
The histone deacetylase activities of HDAC1, HDAC2, HDAC3, HDAC6, and HDAC8 were measured in modified Fluor-de-Lys assays in 384-well format. In this assay, HDAC enzymes are initially incubated with an ε-acetyl (or -trifluoroacetyl)-L-lysine-containing substrate with a C-terminal amide having aminomethylcoumarin as the amine component. HDACs cleave the ε-acetyl group, rendering the resulting product susceptible to AMC cleavage by trypsin. The released AMC is then detected by its fluorescence.
The HDAC 1, 2 assays employed buffer A, which contained 20 mM HEPES, pH 8.0, 1 mM MgCl2, 137 mM NaCl, 2.7 mM KCl, 0.05% BSA. The HDAC3/SMRT assay employed buffer B, consisting of 20 mM HEPES, pH 8.0, 1 mM MgCl2, 50 mM NaCl, 2.7 mM KCl, 0.05% BSA, 0.005% Tween 20, and 10 μM IP4. The HDAC6 assay employed buffer C, consisting of 20 mM HEPES, pH 8.0, 1 mM MgCl2, 137 mM NaCl, 2.7 mM KCl, 0.5 mM TCEP (Calbiochem) and 0.05% BSA. The HDAC8 assay employed buffer D, consisting of 20 mM HEPES, pH 8.0, 1 mM MgCl2, 100 mM NaCl, 20 mM KCl, 0.1% n-octyl-β-D-glucoside (Anatrace, Maumee, Ohio) and 0.05% BSA. All steps were performed at room temperature (23° C.). The assay was performed by pre-incubating serial dilutions of test compounds with the target HDAC prior to initiation with substrate. Each compound was titrated in a 10-point dose response, using a 1:3 fold dilution scheme, with 0.15 ul of solution added by ECHO555 to the plate, followed by the addition of 20 μl of the appropriate HDAC isoform diluted in appropriate assay buffer. […] Final conditions used for each assay were: 1. HDAC 1, 0.3 nM total enzyme, 20 μM substrate BML-KI104; 2. HDAC 2, 1.5 nM total enzyme, 40 μM substrate BML-KI104; 3. HDAC 3/SMRT, 0.3 nM total enzyme, 20 μM substrate BML-KI104; 4. HDAC 6, 1.3 nM total enzyme, 2.5 μM substrate BML-KI104; 5. HDAC 8, 1.3 nM total enzyme, 200 μM substrate BML-KI178; the final high dose of test compound was 30 μM. For potent compounds, 900 nM was used as the final high dose. The reactions were stopped and developed by addition of 30 ul of HDAC developer solution containing a saturating level of HDAC inhibitor as follows: 1.

Compound	IC50 (1.3 nM enzyme) [µM]	IC50 ([…] enzyme) [µM]
CCC(=O)CCCCC[C@H](NC(=O)[C@H]1CC12CCN(CC)CC2)c1[nH]c2nc1C(=O)NCCC/C=C\c1cccc-2c1 [Compound 14, (1S)-6-ethyl-N-{(1S)-7-oxo-1-[(11Z)-6-oxo-3,7,18-triazatricyclo[11.3.1.1~2,5~]octadeca-1(17),2(18),4,11,13,15-hexaen-4-yl]nonyl}-6-azaspiro[2.5]octane-1-carboxamide]	> 0.9	–
CCC(=O)CCCCC[C@H](NC(=O)[C@H]1CC12CCN(CC)CC2)c1[nH]c2nc1C(=O)NCCC/C=C/c1cccc-2c1 [Compound 15, (1S)-6-ethyl-N-{(1S)-7-oxo-1-[(11E)-6-oxo-3,7,18-triazatricyclo[11.3.1.1~2,5~]octadeca-1(17),2(18),4,11,13,15-hexaen-4-yl]nonyl}-6-azaspiro[2.5]octane-1-carboxamide]	> 0.9	–
(11S,4S)-4-(6-oxooctyl)-61,62-dihydro-3-aza-5(2,5)-oxazola-6(6,1)-quinolina-12(4,1)-piperidina-1(1,2)-cyclopropanadodecaphane-62,2-dione [Compound 8]	–	> 0.9
CCC(=O)CCCCC[C@@H]1NC(=O)[C@H]2CC23CCN(CCCOCCCn2ccc4cc(ccc4c2=O)-c2cnc1[nH]2)CC3 [Compound 12, (3S,6S)-6-(6-oxooctyl)-22-oxa-5,8,18,26,33-pentaazahexacyclo[24.2.2.1˜7,10˜0.1˜11,15˜0.1˜14,18˜0.0˜1,3˜]tritriaconta-7,9,11(32),12,14,16-hexaene-4,31-dione]	–	0.808
CCC(=O)CCCCCC1NC(=O)C2CC2N2CCC(CCCCCn3c(=O)ccc4cc(ccc43)-c3cnc1o3)CC2 [Compound 7, (11S,4S)-4-(6-oxooctyl)-61,62-dihydro-3-aza-5(2,5)-oxazola-6(6,1)-quinolina-12(4,1)-piperidina-1(1,2)-cyclopropanadodecaphane-62,2-dione]	–	> 0.9
